Compound | melting point
CC(=O)NC[C@H]1CN(c2ccc(/C=C3\C(=O)N(c4ccccc4)N=C3C(C)(C)C)cc2)C(=O)O1 | 70 °C
CC(=O)NC[C@H]1CN(c2ccc(/C=C3/C(=O)N(C)c4ccccc43)cc2)C(=O)O1 | 193 to 195 °C

Source: patent publication US20020091107A1 (published 2002)
